Here are results for 8 compounds from patent US20060286624A1, “Method for identifying selective growth inhibitors” (priority 2003, published 2006).

In assay [1] the test system is DH5 (sensitive strain) co-seeded with pKS-DH5 (resistant strain). Nature of the assay: Co-seeded agar plate assay (Assay Protocol A), DH5 sensitive / pKS-DH5 resistant strain. Type of assay: cell-based, Escherichia coli. Conditions: Run 6, FIG. 3; co-seeding ratio 500:1; 100 mg/mL, 10 μL in DMSO; 37° C., 12 to 18 hours. The procedure: (§1) Each of a pair of bacterial strains, one sensitive and one resistant to a particular antibacterial agent, was grown by inoculating 25 mL of LB broth (i.e., 10 g of tryptone, 5 g of yeast extract, and 10 g NaCl per liter of water) with 1 to 5 colonies in an Erlenmeyer flask, and then holding the mixture overnight at a temperature of 37° C. while agitating the mixture via rotary shaking (200 rpm). Each batch was allowed to cool to room temperature (about 25° C.). Following OD measurements at λ=600 nm to ensure that both strains have grown to similar densities (i.e., a variation of 10% or less), a sample from the batch of the “sensitive” strain was diluted 10-fold in LB growth medium, and a sample of the “resistant” strain was diluted 500-fold or more to provide a final ratio (i.e., co-seeding ratio) of 50 or more sensitive cells to 1 resistant cell. A 750 μL sample of each of the diluted strains was then mixed into 20 mL of molten agar/growth medium agar (melt temperature=48° C.) (KD Medical's Cat. No. BLF-7070) and poured into rectangular 8.5×12.5 cm Omnitray dishes (Nalge NUNC Intl. Cat No. 242811). Wells were cast by applying custom-made pins (about 3 mm in diameter and 5 mm deep; Nalge NUNC Intl.) into the surface of the molten mixture (48 or 96 pins arrayed over the 8.5×12.5 cm surface) and then allowing the mixture to harden to provide an assay plate. […]

For assay [2], the system named is MSSA (sensitive strain) co-seeded with MRSA (resistant strain). Nature of the assay: Co-seeded agar plate assay (Assay Protocol A), MSSA sensitive / MRSA resistant strain. The conditions noted are these: co-seeding ratio 500:1, 10 μL in DMSO, 37° C., 12 to 18 hours. The assay is classed as cell-based, Staphylococcus aureus. The procedure:
Each of a pair of bacterial strains, one sensitive and one resistant to a particular antibacterial agent, was grown by inoculating 25 mL of LB broth (i.e., 10 g of tryptone, 5 g of yeast extract, and 10 g NaCl per liter of water) with 1 to 5 colonies in an Erlenmeyer flask, and then holding the mixture overnight at a temperature of 37° C. while agitating the mixture via rotary shaking (200 rpm). Each batch was allowed to cool to room temperature (about 25° C.). Following OD measurements at λ=600 nm to ensure that both strains have grown to similar densities (i.e., a variation of 10% or less), a sample from the batch of the “sensitive” strain was diluted 10-fold in LB growth medium, and a sample of the “resistant” strain was diluted 500-fold or more to provide a final ratio (i.e., co-seeding ratio) of 50 or more sensitive cells to 1 resistant cell. A 750 μL sample of each of the diluted strains was then mixed into 20 mL of molten agar/growth medium agar (melt temperature=48° C.) (KD Medical's Cat. No. BLF-7070) and poured into rectangular 8.5×12.5 cm Omnitray dishes (Nalge NUNC Intl. Cat No. 242811). Wells were cast by applying custom-made pins (about 3 mm in diameter and 5 mm deep; Nalge NUNC Intl.) into the surface of the molten mixture (48 or 96 pins arrayed over the 8.5×12.5 cm surface) and then allowing the mixture to harden to provide an assay plate. Test samples dissolved in DMSO were added to the wells, after which the assay plate was incubated at 37° C. for a time sufficient to allow visual detection of cell colonies (i.e., 12 to 18 hours). The plates were then examined for zones of growth and inhibition under ambient light.
The tests set forth in Table 1 were conducted in the manner described in Assay Protocol A, except that in the case of the streptomycin-resistant strain, the inoculated liquid growth medium also contained 25 ug/mL of streptomycin in order to ensure that resistance was not lost during growth.

For assay [3], the system named is MRSA (sensitive strain) co-seeded with CRMRSA (resistant strain). Description: Co-seeded agar plate assay (Assay Protocol A), MRSA sensitive / CRMRSA resistant strain. Type of assay: cell-based, Staphylococcus aureus. The conditions noted are these: co-seeding ratio 100:1, 10 μL in DMSO, 37° C., 12 to 18 hours. The procedure: as §1
Assay [4] deals with ATCC 9637 (sensitive strain) co-seeded with MB941 (resistant strain). Nature of the assay: Co-seeded agar plate assay (Assay Protocol A), ATCC 9637 sensitive / MB941 resistant strain. The assay is classed as cell-based, E. coli. The conditions noted are these: co-seeding ratio 1000:1, 10 μL in DMSO, 37° C., 12 to 18 hours. The procedure:
as §1

Assay [5] has as its system S-eEF2 (sensitive strain) co-seeded with HS-eEF2 (resistant strain). Description: Co-seeded agar plate assay (Assay Protocol B), S-eEF2 sensitive / HS-eEF2 resistant yeast strain. The assay is classed as cell-based, Saccharomyces cerevisiae. Conditions: co-seeding ratio 50:1, DMSO solution, overnight at 29° C. The procedure:
Assay Protocol B The S. cerevisiae yeast strains, S-eEF2 and HS-eEF2, were each grown overnight from a single colony in 5 mL YPAD (i.e., 1% yeast extract, 2% peptone, 0.004% adenine sulfate, and 2% glucose) in an Erlenmeyer flask at 29° C. with shaking on a roller drum. The sensitive strain S-eEF2 was diluted with additional YPAD to give a final absorbance at λ=600 nm of 0.01 (control =YPAD), and the resistant strain HS-eEF2 was diluted to an absorbance at λ=600 nm of 0.0002. Each strain (5 mL) was added to a glass test tube containing 25 mL of molten YPAD agar equilibrated at 50° C. The mixture was then stirred briefly and poured onto sterile disposable 86×128-mm plastic dishes (NUNC Cat. No. 242811). The dishes were cooled for 5 minutes at room temperature, dried in a hood, and then stored for no more than 2 days until ready for treatment with test substances. Test substances were dissolved in the appropriate solvent and a suitable portion of the solution was spotted on the co-seeded plates. The plates were incubated overnight at 29° C., and then inspected visually for the appearance of zones of growth and inhibition, and particularly for the appearance of resistant colonies capable of growing in the presence of the test substances.
The tests set forth in Table 2 were conducted in the manner described in Assay Protocol B.

SMILES strings stand for the structures.

For `CC1(C)S[C@@H]2[C@H](NC(=O)[C@H](N)c3ccccc3)C(=O)N2[C@H]1C(=O)O` [ampicillin], the “zone of growth inhibition (appearance, resistant colonies)” value (“zone of growth inhibition” for short) in assay [1] is “isolated resistant colonies within a zone that otherwise exhibits no growth”.
As for `O=C(N[C@H](CO)[C@H](O)c1ccc([N+](=O)[O-])cc1)C(Cl)Cl` [chloramphenicol], the “zone of growth inhibition” value in assay [2] (Run 1, FIG. 1A, 100 μg/mL) is listed as “visually contains no resistant colonies”; in assay [3] (Run 5, FIG. 2B, 1 mg/mL) it was “zone of no growth containing isolated colonies of resistant bacteria”.
With `O=C(O)c1cn(C2CC2)c2cc(N3CCNCC3)c(F)cc2c1=O` [ciproflaxin, ciprofloxacin], in assay [3] (Run 4, FIG. 2A, 50 μg/mL), the “zone of growth inhibition” value is listed as “clear zone of no growth”.
Turning to `[H]/N=C(/N)N[C@H]1[C@H](O)[C@@H](O)[C@H](O[C@@H]2O[C@@H](C)[C@](O)(C=O)[C@H]2O[C@@H]2O[C@@H](CO)[C@H](O)[C@@H](O)[C@@H]2NC)[C@@H](N/C(N)=N\[H])[C@@H]1O` [streptomycin], the “zone of growth inhibition” value is recorded as “a few colonies at or near the border of the inhibition zone” in assay [2] (Run 2, FIG. 1B, 1 mg/mL) and “zone of no growth containing isolated colonies of resistant bacteria” in assay [4] (Run 8, FIG. 4B, 500 μg/mL).
`CN(C)[C@@H]1C(O)=C(C(N)=O)C(=O)[C@@]2(O)C(O)=C3C(=O)c4c(O)cccc4[C@@](C)(O)[C@H]3C[C@@H]12` [tetracylin, tetracyclin]: the “zone of growth inhibition” value in assay [4] (Run 7, FIG. 4A, 1 mg/mL) is “clear zone of no growth”.
In the case of `CO[C@@]1(NC(=O)Cc2cccs2)C(=O)N2C(C(=O)O)=C(COC(N)=O)CS[C@@H]21` [cefoxitin], the “zone of growth inhibition” value in assay [2] (Run 3, FIG. 1C, 500 μg/mL) is recorded as “a multitude of resistant colonies throughout the inhibition zone”.
`CC(=O)O[C@@H]1C[C@]23C4=CC[C@@]5(C)[C@H](C(=O)O)[C@@](C)([C@H](C)C(C)C)CC[C@]5(C)[C@H]4CC[C@H]2[C@@](C)(COC3O)[C@H]1O[C@@H]1O[C@H](CO)[C@@H](O)[C@H](O)[C@H]1O` (stereo partly shown) [enfumafungin]: the “zone of growth inhibition” value in assay [5] (Run 9, FIG. 5A, 0.2 μg spotted) is recorded as “visually clear zone exhibiting no growth of either the sensitive or the resistant strain”.
For `CO[C@H]1[C@@H](O)[C@H](O)[C@H](OC[C@@]23C[C@@H]4[C@H](C)CC[C@H]4[C@@]4(C=O)CC2C=C(C(C)C)[C@@]34C(=O)O)O[C@@H]1C` [sordarin], the “zone of growth inhibition” value in assay [5] (Run 10, FIG. 5B, 2 μg spotted) was “zone of growth inhibition in which resistant colonies are present”.
